Structures are written as SMILES.

This experiment concerns M. tuberculosis H37Rv growth with meropenem, percent inhibition. The experiment can be described thus: beta-lactam sensitization of Mtb H37Rv, H37Rv (AID 434955).
The IC90 is the point of the concentration-response curve where the effect stands at 90%. For the molecule `CCOc1ccc2c(c1)c(C(C)=O)c(C)n2-c1ccccc1`, the IC90 is 1.96 µM. On to `OCCCc1cn(-c2ccccc2)c2ccccc12`, for which the IC90 is 60.8 µM. As to `CC(C)(C)c1ccc(C(=O)Oc2ccc3c(c2)OCC3=O)cc1`, the IC90 is 29.4 µM.

Turning to `COc1ccc(-c2cc(C(F)F)nc(-n3nc(C)cc3C)n2)cc1`, the IC90 was 54.1 µM. `COc1ccccc1N1CCN(CC(=O)Nc2cc(F)ccc2C)CC1`: the IC90 is 91 µM.

Consider `c1ccc(-c2cc(N3CCOCC3)nc3ccccc23)cc1`, for which the IC90 was 91.5 µM.

As to `CC/C(=N\NC(=O)c1ccc(-c2ccccc2)cc1)C12CC3CC(CC(C3)C1)C2`, the IC90 was 43.7 µM. With `COc1cccc(/C=N/NC(=O)NC23CC4CC(CC(C4)C2)C3)c1O`, the IC90 is 26.8 µM. The value for `Cc1nnnn1/C(=C\c1ccccc1)C(=O)OCC(=O)Nc1ccc(Cl)cc1F` was 25.5 µM. The value for `CC(C)(C)C1=Nn2c(nnc2-c2ccccc2F)SC1` was 78.3 µM; that for `COc1ccc(/C=C/C(=O)N(C(C)C)C(C)C)cc1Br` was 96.4 µM. Consider `COc1cc2nc(N3CCN(C(=O)OCc4ccccc4)[C@H](C(=O)NC(C)(C)C)C3)nc(N)c2cc1OC`, for which the IC90 is 84 µM. The value for `COC(=O)CNC(c1ccccc1Cl)c1cc(Br)ccc1NC(=O)CCN1CCOCC1` (stereo unspecified) was 34.3 µM; that for `Cc1ccc(C)c(SCc2noc(C(=O)NCC3CCCO3)c2C(=O)O)c1` (stereo unspecified) was 48 µM; that for `c1ccc(-n2c3ccccc3c3ccccc32)cc1` was 22.7 µM. As for `CCN(CC)c1ccc(CN2CCCCCC2)cc1`, the figure is 49.4 µM.

Regarding `C/C(=N/NC(=O)c1cccs1)c1c(C)[nH]n(-c2nc3ccccc3s2)c1=O`, the IC90 was 1.58 µM.

As for `CC(=O)Nc1cccc(/C(C)=N/NC(N)=S)c1`, the IC90 was 28.6 µM.

Regarding `CCN(CC)CCCNC(=O)c1c(O)c2ccccc2n(Cc2ccccc2)c1=O`, the IC90 was 13.8 µM. The value for `O=C(N[C@@H](Cc1ccccc1)C(=O)CCl)OCc1ccccc1` was 46.9 µM; that for `O=C(CCCCCN1C(=O)c2cccc([N+](=O)[O-])c2C1=O)Nc1ccccc1F` was 44.1 µM. On to `CCCCNC(=O)c1onc(CSc2ccc(F)c(F)c2)c1C(=O)O`, for which the IC90 is 56.8 µM.

Turning to `CC(=O)Nc1ccc(Nc2ncc([N+](=O)[O-])c(Nc3ccc(NC(C)=O)cc3)n2)cc1`, the IC90 was 45.5 µM. As for `Cc1cc(C2C(=O)c3ccccc3C2=O)c(C)c(C)c1C`, the figure is 16.4 µM. The value for `COc1cc(C(=O)Nc2cccc(-c3cn4cccnc4n3)c2)cc(OC)c1OC` was 30.2 µM; that for `O=C(COC(=O)c1ccc([N+](=O)[O-])s1)NCc1ccccc1` was 39.4 µM.

Turning to `CCN(CC)C(=O)C1CCCN(c2ccc([N+](=O)[O-])cc2/C=N/NC(=O)c2cccc(O)c2)C1` (stereo unspecified), the IC90 is 55.3 µM.

As for `COc1cccc(/C=N/Nc2nc(N3CCCC3)nc(N3CCCC3)n2)c1O`, the IC90 was 36.1 µM.

With `Nc1ccc(C(=O)O)c(O)c1`, the IC90 was 1.88 µM. As for `CN1CCN(c2ccc(NC(=O)c3ccc(-c4cccc([N+](=O)[O-])c4)o3)cc2)CC1`, the figure is 6.71 µM; as for `CCOC(=O)c1c(C)[nH]c(C)c1C(=O)COC(=O)/C=C/c1ccc(OC(F)F)cc1`, 91.4 µM; as for `O=C(CSC1CS(=O)(=O)c2cc([N+](=O)[O-])ccc21)NNC(=O)c1ccccc1` (stereo unspecified), 13.3 µM. In the case of `O=C1c2ccccc2N2C(=O)c3ccccc3C2N1O` (stereo unspecified), the IC90 was 56.4 µM.

As to `CC(C)C1CC(CCNCc2ccc(N(C)C)cc2)(c2ccccc2)CCO1` (stereo unspecified), the IC90 is 26.9 µM. As for `O=C(Nc1nc2ccccc2n1CCN1CCCC1)C1CCCCC1`, the figure is 27.5 µM. As for `O=[N+]([O-])c1cc(C(F)(F)F)ccc1NCCc1c[nH]c2ccc(O)cc12`, the figure is 72.9 µM; as for `CCCCN(C)Cc1cc(=O)oc2cc3c(cc12)CCCC3`, 82.2 µM; as for `CCOc1ccc2nc(SC3CC(=O)N(c4cccc(OC)c4)C3=O)sc2c1` (stereo unspecified), 25.7 µM.

As to `CN(C(=O)Nc1ccc(Cl)cc1)n1cnc2ccccc2c1=O`, the IC90 was 48.6 µM. The value for `CC(C)(C)c1nn(-c2ccccc2)c2[nH]c(=O)c(CNc3ccc4c(c3)OCCO4)cc12` was 99.7 µM.

As for `CC1(C)CC(CCNC(=O)CCl)(c2ccccc2)CCO1` (stereo unspecified), the IC90 was 8.14 µM. The value for `CC(NC(=O)CSc1nc2ccccc2c(=O)[nH]1)c1ccccc1` (stereo unspecified) was 60.9 µM. As for `COC(=O)c1sc(-c2ccc(Cl)cc2)cc1NC(=O)COCC(=O)O`, the figure is 44.8 µM; as for `O=C(CCSc1ccc(Cl)c(Cl)c1)NC12CC3CC(CC(C3)C1)C2`, 12.3 µM. As for `C=CCN=c1scc(-c2ccc(F)cc2)n1/N=C/c1ccccn1`, the figure is 71.7 µM. Turning to `CCOC(=O)N1CCN(C(=O)CSc2nnc(COc3ccccc3)o2)CC1`, the IC90 was 18.4 µM. For `Cc1[nH]n(-c2ccccc2)c(=O)c1/C=N/NC(=O)c1cccc([N+](=O)[O-])c1`, the IC90 is 70.7 µM. As for `O=C(Cc1cccc2ccccc12)N/N=C/c1ccc(O)c([N+](=O)[O-])c1`, the figure is 31.6 µM. The value for `CSc1ccc(/C=C/C(=O)NC23CC4CC(CC(C4)C2)C3)cc1` was 16.1 µM. The value for `O=C(c1ccc(-c2ccc(Cl)cc2)o1)N1CCN(S(=O)(=O)c2cccs2)CC1` was 99.6 µM; that for `Nc1ncnc2c1c(-c1ccc(Oc3ccccc3)cc1)cn2C1CCCC1` was 60.3 µM; that for `Cc1ccc(-c2[nH][nH]c(=O)c(=O)c2N=Nc2ccccc2)cc1` was 86.2 µM. As for `COc1ccc(-n2cc(-c3ccccc3)c3c(NN4CCOCC4)ncnc32)cc1`, the IC90 is 36.1 µM. Turning to `CCCCNC(=O)c1onc(CSc2ccccc2C)c1C(=O)O`, the IC90 is 50.6 µM. The value for `COc1cc(NC(=O)c2cccc(Cl)c2)c(OC)cc1NC(=O)CN1CCCCC1` was 75.5 µM; that for `Cc1cc(C)c(OCC(=O)Nc2nc3ccccc3[nH]2)c(C)c1` was 65.2 µM; that for `COC(=O)Cn1c2ccccc2c2nc(C)sc21` was 27.8 µM. `CCOC(=O)CSc1nnc(CNC(=O)c2cccs2)n1CCc1ccccc1`: the IC90 was 49.5 µM. As for `Cc1nnc(SCc2cccc(Cl)c2)n(N)c1=O`, the figure is 10.1 µM; as for `CCCCN(CC)S(=O)(=O)c1ccc(C(=O)Nc2nnc(CSC)o2)cc1`, 31.7 µM. As for `Cc1nn(-c2ccccc2)c(N2CCCC2)c1/C=C1\N=C(c2ccc(F)cc2)OC1=O`, the figure is 22.9 µM; as for `O=C(NN1C(=O)c2cc(Br)ccc2NC1c1ccccc1Cl)c1ccncc1` (stereo unspecified), 13.7 µM. As for `O=C1Nc2c(ccc(Cl)c2Cl)C(=O)C1(F)c1ccccc1` (stereo unspecified), the figure is 71.7 µM. As to `COc1ccc(NC(=O)c2cc(C)nc3ccccc23)c(OC)c1`, the IC90 is 12.9 µM. As for `CC12CCC(C/C1=N\N=C1\NC(=O)/C(=C\c3cccc(Br)c3)S1)C2(C)C` (stereo unspecified), the IC90 is 37.7 µM. The value for `C=CCNCCCOc1ccc(Cl)cc1C(C)(C)C` was 52.6 µM. For `Cc1cc(C)cc(OCC(=O)NNC(=O)c2ccccn2)c1`, the IC90 is 16 µM.

Turning to `COc1cc(/C=C/c2ccc3cccc([N+](=O)[O-])c3n2)ccc1OCC(=O)O`, the IC90 was 12 µM. As to `C/C(CC(=O)NCc1ccco1)=N\NC(=O)CC#N`, the IC90 was 17.6 µM. Regarding `CN1C/C(=N\S(=O)(=O)c2ccccc2)N(C)C1=O`, the IC90 is 33.7 µM. For `Cc1cccc(Cl)c1NC(=S)NN`, the IC90 was 55.1 µM.
